In assay [1] the target is T1, Elastase from porcine pancreas (Sus scrofa, UniProt P00772).
T1 construct: purchased Sigma-Aldrich; host or cells: porcine pancreas (tissue-derived commercial powder)
Description: Elastase inhibition assay, spectrophotometric (N-succinyl-Ala-Ala-Ala-p-nitroanilide, 405 nm). The class given is biochemical. The protocol:
In order to evaluate the effect of these compounds (ILs and IL-APIs), an enzymatic reaction based on the conversion of the substrate N-succinyl-Ala-Ala-Ala-p-nitroaniline to succinyl-Ala-Ala-Ala and p-nitroaniline by the enzyme elastase was performed. The enzyme activity is determined by the formation of p-nitroaniline, the chromogenic compound resulted from the reaction. Substrate degradation was continuously monitored in the spectrophotometer by measuring increasing absorbance at 405 nm.
The EC50 values for each IL were calculated as the inhibitory concentration causing a 50% decrease in Elastase activity. The EC50 values were automatically calculated, using GraphPad prism8 software.
All the reagents (HEPES buffer, N-succinyl-Ala-Ala-Ala p-nitroanilide, Elastase and acetate buffer) were added sequentially in eppendorf, being the final volume equal to 250 µL. So, in each eppendorf it was added 137.5 µL of HEPES buffer, 10 µL of N-succinyl-Ala-Ala-Ala p-nitroanilide substrate, 30 µL of elastase, 70 µL of acetate buffer, 2.5 µL of DMSO. In inhibitory assays was 87.5 µL of HEPES buffer, 10 µL of N-succinyl-Ala-Ala-Ala p-nitroanilide substrate, 30 µL of elastase, 70 µL of acetate buffer, 2.5 µL of DMSO, and 50 µL of IL/IL-APIs.
Next, the eppendorf was placed inside the thermostatic bath at 37 °C for 10 min.
After 10 min, the reaction product was measured in spectrophotometer at 405 nm.
All assays were performed in batch mode. Thus, the different reagents were placed manually in an eppendorf at the desired concentrations and volumes. After, they were placed in a thermostatic bath where the reaction temperature was regulated for the desired period. The succinyl-Ala-Ala-Ala and p-nitroaniline result from the cleavage of the substrate N-succinyl-Ala-Ala-Ala-p-nitroaniline by porcine elastase enzyme. The enzyme activity was determined by monitoring the chromogenic compound, p-nitroaniline, at 405 nm. All results of ILs and IL-APIs were obtained in duplicate.

Another assay concerns the target carboxylesterase. Conditions: read-out: EC50 for carboxylesterase; compared with elastase values; cited from earlier work.
Setting [2] is: IL-APIs, aqueous solutions, 37 °C, 10 min, substrate 100 µM, duplicate, read-out: EC50 (µM) ± SD.

Like-named read-outs stand apart in the source and are kept apart here. Where a SMILES comes first, the peptide text is derived from it. The star is where a group is joined. MeOSuc = COC(=O)CCC(=O)*; CH2Cl = ClC* Bounds are passed on as bounds.

The source of these data is PMC7796259, “Evaluation of Ionic Liquids and Ionic Liquids Active Pharmaceutical Ingredients Inhibition in Elastase Enzyme Activity” (Molecules, 2021).

Usually EC50 stands for the concentration giving half of the maximal effect.

T1 sequence (P00772 27-266): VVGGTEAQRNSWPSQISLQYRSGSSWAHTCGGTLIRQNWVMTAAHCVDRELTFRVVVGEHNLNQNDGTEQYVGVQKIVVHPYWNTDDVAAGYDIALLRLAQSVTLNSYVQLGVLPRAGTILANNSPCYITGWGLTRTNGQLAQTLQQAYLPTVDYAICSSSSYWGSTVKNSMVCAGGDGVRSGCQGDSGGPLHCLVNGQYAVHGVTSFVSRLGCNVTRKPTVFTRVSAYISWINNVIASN

Take `CC(C)(C)CC(C)(C)c1ccc(OCCOCC[N+](C)(C)Cc2ccccc2)cc1.O=S(=O)([N-]S(=O)(=O)C(F)(F)F)C(F)(F)F` [Benzethonium bistriflimide]: the EC50 in assay [1] (setting [2]) is above 1000 µM.

With `O=S(=O)(NS(=O)(=O)C(F)(F)F)C(F)(F)F` [Lithium bistriflimide], the EC50 in assay [1] (setting [2]) is 209 ± 12 µM.

Consider `COC(=O)CCC(=O)N[C@@H](C)C(=O)N[C@@H](C)C(=O)N1CCC[C@H]1C(=O)N[C@H](C(=O)CCl)C(C)C` [MeOSuc-Ala-Ala-Pro-Val-chloromethylketone, reference compound] (MeOSuc-AAPV-CH2Cl), for which, in assay [1] (ILs and positive control, aqueous solutions, 37 °C, 10 min, substrate 100 µM, duplicate, read-out: EC50 (mM) ± SD), the EC50 was 470 ± 50 µM.

Take `O=C([O-])c1ccccc1O.[Na+]` [Sodium salicylate, reference compound]: the values for the EC50 (in assay [1] (read-out: EC50 (µM) ± SD); at carboxylesterase) were 124 ± 4 µM and 116.99 ± 0.02 µM, respectively.

For the compound `CCCC[P+](C)(CCCC)CCCC` [Tributylmethylphosphonium salicylate], in assay [1] (setting [2]), the EC50 is above 200 µM.

For `CCCCC(CC)COC(=O)CC(C(=O)OCC(CC)CCCC)S(=O)(=O)[O-].CCCCCCCCCCCCCC[P+](CCCCCC)(CCCCCC)CCCCCC` [Trihexyltetradecylphosphonium docusate], in assay [1] (setting [2]), the EC50 is above 700 µM.

With `CCCCCCCCCCCCCC[P+](CCCCCC)(CCCCCC)CCCCCC` [Trihexyltetradecyphosphonium chloride], the EC50 in assay [1] (setting [2]) was above 100 µM.

For the compound Benzalkonium salicylate, the EC50 in assay [1] (setting [2]) is 230 ± 20 µM.

For Benzethonium docusate, the EC50 in assay [1] (setting [2]) is above 200 µM.

Take Benzethonium salicylate: the EC50 in assay [1] (setting [2]) is above 500 µM.
